Experiment [1] deals with S1P1 (membranes prepared from S1P1/CHO cells) (Homo sapiens (Human), UniProt P21453). Put plainly: Receptor [35S] GTPγS binding assay (S1P1 GTPγS). Conditions: phosphate examples; read-out: S1P1 GTPγS. Type of experiment: biochemical. The essentials:
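Membranes from S1P1-expressing CHO cells (3 μg protein/well) incubated with compound (11-point, 3-fold dilution) and 0.2 nM final [35S]GTPγS, 45 min at room temperature. Assay buffer: 20 mM HEPES pH 7.5, 10 mM MgCl2, 150 mM NaCl, 10 μM GDP, 0.1% fatty-acid-free BSA, 10 μg/ml saponin. Filter-bound radioactivity counted by scintillation; EC50 derived.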
Background: Binding of GTPγS marks nucleotide exchange on a G protein.

The next experiment addresses hS1P1/CHO cells (Homo sapiens (Human), UniProt P21453). The experiment in a line: hS1P1 ERK phosphorylation (S1P1 pERK). It is filed as cell-based. Conditions: phosphate examples. Put shortly: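 CHO cells expressing human S1P1, serum-starved 2 h, exposed to compound in HBSS/20 mM HEPES for 7 min at 37° C. Lysates assayed for phospho-ERK by SureFire kit; response given as % activation relative to 10 μM S1P.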

A further experiment concerns the target human S1P1 (Homo sapiens (Human), UniProt P21453). The experiment in a line: S1P1 binding assay (33P-S1P radioligand competition, CHO cell membranes). The conditions noted are these: phosphate examples; read-out: S1P1 Binding. Put shortly:
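Radioligand is 33P-S1P, competing for membranes from human S1P1-expressing CHO cells. Membranes resuspended in 50 mM HEPES pH 7.5, 100 mM NaCl, 1 mM MgCl2, 2 mM EDTA.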
(In general: Loss of bound radioactivity is the signal in a displacement assay; it reports binding, not function.)

For experiment [2], the target named is S1P3 (membranes prepared from EDG3-Gal5-bla HEK293T cells) (Homo sapiens (Human), UniProt Q99500). The experiment in a line: Receptor [35S] GTPγS binding assay (S1P3 GTPγS). It is filed as biochemical. The conditions noted are these: phosphate examples; read-out: S1P3 GTPγS. Put shortly: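 Membranes (3 μg protein/well) from S1P1/CHO cells or EDG3-Gal5-bla HEK293T cells (S1P3) were incubated 45 min at room temperature with 0.2 nM final [35S]GTPγS in HEPES pH 7.5 buffer with 10 μM GDP, MgCl2 and saponin. Bound label counted after filtration; EC50 from 11-point, 3-fold dilutions.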
S1P3 (membranes prepared from EDG3-Gal5-bla HEK293T cells), sequence (Q99500 whole entry): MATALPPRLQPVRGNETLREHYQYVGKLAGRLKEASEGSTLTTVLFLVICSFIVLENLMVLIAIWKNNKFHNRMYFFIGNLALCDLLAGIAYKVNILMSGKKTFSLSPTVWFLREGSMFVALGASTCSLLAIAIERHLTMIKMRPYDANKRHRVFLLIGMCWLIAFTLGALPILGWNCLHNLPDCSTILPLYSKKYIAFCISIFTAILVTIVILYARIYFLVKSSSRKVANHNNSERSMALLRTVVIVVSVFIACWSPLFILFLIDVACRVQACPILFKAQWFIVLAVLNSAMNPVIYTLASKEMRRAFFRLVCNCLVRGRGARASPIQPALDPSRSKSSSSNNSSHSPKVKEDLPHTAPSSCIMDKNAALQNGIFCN

S1P1 (membranes prepared from S1P1/CHO cells), sequence (P21453 whole entry): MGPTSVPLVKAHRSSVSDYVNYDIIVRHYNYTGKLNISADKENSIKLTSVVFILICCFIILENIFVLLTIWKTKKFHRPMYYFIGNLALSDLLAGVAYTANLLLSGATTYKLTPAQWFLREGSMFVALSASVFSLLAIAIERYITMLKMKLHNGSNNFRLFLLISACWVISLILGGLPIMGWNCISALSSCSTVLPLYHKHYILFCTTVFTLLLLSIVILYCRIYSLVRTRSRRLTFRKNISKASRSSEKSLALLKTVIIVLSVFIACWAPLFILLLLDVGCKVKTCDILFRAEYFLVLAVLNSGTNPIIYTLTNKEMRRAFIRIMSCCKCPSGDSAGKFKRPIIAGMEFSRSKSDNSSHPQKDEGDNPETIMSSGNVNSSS
human S1P1, sequence (P21453 whole entry): as above
hS1P1/CHO cells, sequence (P21453 whole entry): as above

In the case of `CC/C=C\COC[C@@H]1CCc2cc([C@H]3CC[C@](N)(COP(=O)(O)O)C3)ccc2C1` [compound 455], the values for the EC50 (in experiment [1]; on hS1P1/CHO cells; in experiment [2]) were below 0.01 µM, below 0.01 µM and above 0.625 µM, respectively. Further, the IC50 at human S1P1 was below 0.01 µM.

As for `C#CCCOCCO[C@H]1CCc2cc([C@@H]3CC[C@@](N)(COP(=O)(O)O)C3)ccc2C1` [compound 586], the values for the EC50 (in experiment [1]; on hS1P1/CHO cells; in experiment [2]) were 0.01 to 0.1 µM, below 0.01 µM and above 0.625 µM, respectively. In addition, the IC50 on human S1P1 was below 0.01 µM.

Take `COCCCCCC[C@H]1CCc2cc(C3CCC(N)(COP(=O)(O)O)C3)ccc2C1` (single isomer, unassigned) [compound 597]: the EC50 in experiment [1] was below 0.01 µM; on hS1P1/CHO cells it was 0.01 to 0.1 µM; in experiment [2], above 0.625 µM. Besides, the IC50 at human S1P1 is below 0.01 µM.

Regarding `C=CCCOC[C@@H]1CCc2cc([C@H]3CC[C@](N)(COP(=O)(O)O)C3)ccc2C1` [compound 452], the EC50 in experiment [1] is below 0.01 µM; at hS1P1/CHO cells it was below 0.01 µM; in experiment [2], above 0.625 µM. Besides, the IC50 on human S1P1 was below 0.01 µM.

As for `N[C@]1(COP(=O)(O)O)CC[C@H](c2ccc3c(c2)CC[C@@H](/C=C/C2CCOCC2)C3)C1` [compound 642], the results for the EC50 (in experiment [1]; on hS1P1/CHO cells; in experiment [2]) were below 0.01 µM, below 0.01 µM and above 0.625 µM, respectively. Also, the IC50 at human S1P1 fell in the range of 0.01 to 0.1 µM.

As to `CC(C)(C)CCSC[C@H]1CCc2cc([C@H]3CC[C@](N)(COP(=O)(O)O)C3)ccc2C1` [compound 518], the EC50 in experiment [1] was below 0.01 µM; on hS1P1/CHO cells it was below 0.01 µM; in experiment [2] it was above 0.625 µM. At human S1P1, the IC50 is below 0.01 µM.

In the case of `COCCCCC[C@H]1CCc2cc([C@@H]3CC[C@@](N)(COP(=O)(O)O)C3)ccc2C1` [compound 598], the values for the EC50 (in experiment [1]; at hS1P1/CHO cells; in experiment [2]) were 0.01 to 0.1 µM, below 0.01 µM and above 0.625 µM, respectively. Moreover, the IC50 at human S1P1 lay within 0.01 to 0.1 µM.

Turning to `COCc1ccc(C[C@@H]2CCc3cc([C@H]4CC[C@](N)(COP(=O)(O)O)C4)ccc3C2)cc1` [compound 550], the EC50 in experiment [1] was 0.01 to 0.1 µM; at hS1P1/CHO cells, below 0.01 µM; in experiment [2], above 0.625 µM. The IC50 on human S1P1 lay in the range of 0.01 to 0.1 µM.

For `CC(C)(C)CSC[C@@H]1CCc2cc([C@H]3CC[C@](N)(COP(=O)(O)O)C3)ccc2C1` [compound 515], the EC50 in experiment [1] is 0.01 to 0.1 µM; on hS1P1/CHO cells, below 0.01 µM; in experiment [2], above 0.625 µM. The IC50 at human S1P1 lay in the range of 0.01 to 0.1 µM.

As for `CCCCCCC1CCc2cc([C@@H]3CC[C@](N)(COP(=O)(O)O)C3)ccc2O1` (stereo partly drawn) [compound 420], the EC50 in experiment [1] is 0.01 to 0.1 µM; on hS1P1/CHO cells, 1 to 10 µM; in experiment [2] it was above 0.625 µM. Moreover, the IC50 at human S1P1 lay in the range of 0.01 to 0.1 µM.

In the case of `N[C@]1(COP(=O)(O)O)CC[C@H](c2ccc3c(c2)CC[C@H](COc2ccccc2)C3)C1` [compound 459], the EC50 in experiment [1] was 0.01 to 0.1 µM; on hS1P1/CHO cells it was below 0.01 µM; in experiment [2], above 0.625 µM. Moreover, the IC50 at human S1P1 was below 0.01 µM.

As for `CCCCOCCO[C@@H]1CCc2cc([C@@H]3CC[C@@](N)(COP(=O)(O)O)C3)ccc2C1` [compound 592], the figures for the EC50 (in experiment [1]; on hS1P1/CHO cells; in experiment [2]) were 0.01 to 0.1 µM, below 0.01 µM and above 0.625 µM, respectively. Besides, on human S1P1, the IC50 is below 0.01 µM.

Take `N[C@]1(COP(=O)(O)O)CC[C@H](c2ccc3c(c2)CC[C@@H](COCc2ccc(C(F)(F)F)s2)C3)C1` [compound 499]: the EC50 in experiment [1] was 0.01 to 0.1 µM; on hS1P1/CHO cells, 0.01 to 0.1 µM; in experiment [2], above 0.625 µM. The IC50 at human S1P1 is below 0.01 µM.

As to `CCCCOC[C@@H]1COc2cc([C@@H]3CC[C@](N)(COP(=O)(O)O)C3)ccc2O1` [compound 415], the EC50 is 0.01 to 0.1 µM in experiment [1], 0.01 to 0.1 µM at hS1P1/CHO cells and above 0.625 µM in experiment [2]. For the same molecule, the IC50 at human S1P1 was 0.01 to 0.1 µM.

As for `N[C@@]1(COP(=O)(O)O)CC[C@@H](c2ccc3c(c2)CC[C@H](CCc2ccc4ccccc4n2)C3)C1` (single isomer, unassigned) [compound 604], the figures for the EC50 (in experiment [1]; on hS1P1/CHO cells; in experiment [2]) were 0.1 to 1 µM, 0.01 to 0.1 µM and above 0.625 µM, respectively. Moreover, the IC50 on human S1P1 was in the range of 0.1 to 1 µM.

The record behind these values is patent US9522888B2, “Substituted bicyclic compounds” (BRISTOL-MYERS SQUIBB COMPANY, priority 2014, dated 2016).
